In patent EP0439320A1, “Erectile dysfunction treatment” (YAMANOUCHI PHARMACEUTICAL CO. LTD., priority 1990, dated 1991):
No end group written: not given here.

Key:
[1] = test system: penis cavernous smooth muscle of pigs; test: Relaxation of isolated pig cavernous smooth muscle strip precontracted with noradrenaline (organ bath, tension recorded); conditions: for Time until prior response restored: contractile response to noradrenaline
Description: The pig and humans cavernous smooth muscle specimens are placed in an organ bath, and the tension is recorded. […] Work was also conducted with reference compounds in the porcine tissue, measuring the contractile response to noradrenaline.

[2] = Acute toxicity test in rats; conditions: rat, in vivo, F344 rats, single dose, 2 weeks observation, read-out: LD50 (95% confidence limits)
Description: (§1) The acute toxicity of compound (I) salt was evaluated using ICR mice and F344 rats.
(§2) compound (I) was dissolved in dimethylsulfoxide, and the same amount of Macrogol 400 (trade name) was added, and then distilled water for injection was added thereto to provide a solution of predetermined concentration. The solution was injected once each test, intravenously or subcutaneously, at a rate of 10-20 ml/kg, the maximum concentration of the administered solution being 12 mg/ml and 25 mg/ml respectively. The animals were kept under observation for 2 weeks. LD₅₀ values were determined by the up and down method (Probit method) using 5 animals.

[3] = Acute toxicity test in mice; conditions: mouse, in vivo, single dose, 2 weeks observation, read-out: LD50 (95% confidence limits)
Description: as §1, §2

[4] = test system: human cavernous smooth muscle strip; test: Relaxation of isolated human cavernous smooth muscle strip contracted with noradrenaline (organ bath); parameters: species or system humans; conditions: dose 10^-7 M, contracted with noradrenaline 2 x 10^-5 M, read-out: Inhibiting effect
Description: The relaxing effect of compound (I) on isolated specimens of penis cavernous smooth muscle of pigs (smooth muscle strips obtained from slaughtered boards) and of humans was tested by the following method. The pig and humans cavernous smooth muscle specimens are placed in an organ bath, and the tension is recorded. In the case of human cavernous smooth muscle strip, the relaxatory effect was evaluated. The specimen was contracted with a noradrenaline dose of 2 x 10⁻⁵ M and was treated with compound (I) at a dose of 10⁻⁷ M. In Table 2, the result for human tissue is shown.

[5] = test system: penis erection (tumescence) and its firmness (rigidity); test: Tumescence and rigidity after intracorporeal injection in anesthetized monkeys; format: in vivo, monkeys (Cynogos or Vervet); conditions: 0.1 g injected into the corpus cavernosum; evaluated 5 to 120 min after injection; data only in Fig. 1
Description: Tumescence and rigidity after intracorporeal injection of compound (I) were evaluated for monkeys.
Anesthetized monkeys (Cynogos or Vervet), 4-6 kg body weight, were used for the test.
The animal was anesthetized with ketamine and 0.1 g of compound (I) was injected in solution into the corpus cavernosum with a tourniquet at the base of the penis; the animal was then under observation and changes in tumescence and rigidity were noted and plotted. The tourniquet was removed 5 min after the injection.
Manual and visual evaluation of tumescence and rigidity was made 5, 10, 15, 20, 30, 60 and 120 min after injection.
The activity of compound (I) (dose: 0.1 g) on penis erection (tumescence) and firmness (rigidity) in the anesthetized monkeys is shown in Fig. 1.

COc1ccc(Cc2nccc3cc(OC)c(OC)cc23)cc1OC [Papaverine]
Time until prior response restored ([1]; antagonist dose 2 x 10^-4 M): 45 min

CCOc1ccccc1OCCNC(C)Cc1ccc(OC)c(S(N)(=O)=O)c1 (stereo not drawn) [Compound (I), 5-[2-[2-(2-ethoxyphenoxy)ethylamino]-2-methylethyl] -2-methoxybenzene sulfonamide]
LD50 at 336 h ([2]; iv, intravenous, Female): 78 mg/kg | LD50 at 336 h ([2]; iv, intravenous, Male): 70 mg/kg | LD50 at 336 h ([2]; sc, subcutaneous, Female): 347 mg/kg | LD50 at 336 h ([2]; sc, subcutaneous, Male): 395 mg/kg | LD50 at 336 h ([3]; iv, Female): 103 mg/kg | LD50 at 336 h ([3]; iv, Male): 98 mg/kg | LD50 at 336 h ([3]; sc, subcutaneous, Female): 275 mg/kg | LD50 at 336 h ([3]; sc, subcutaneous, Male): 254 mg/kg | inhibition at 0.1 µM [4]: 100% | full response seen (contractile response to noradrenaline) ([1]; antagonist dose 10^-8 M, at 165 min, noradrenaline 10^-6 to 10^-8 M): At 165 min 60% of full response seen | Effect on penis erection (tumescence) and firmness (rigidity) [5]: excellent effects of potent penis erection, tumescence and rigidity with long lasting action

vasoactive intestinal peptide (HSDAVFTDNYTRLRKQMAVKKYLNSILN; ends and bridges not checked; UniProt P01282 125-152, looked up) [VIP (vasoactive intestinal peptide)]
Time until prior response restored ([1]; antagonist dose 10^-7 M): 45 min

Cc1ccc(N(CC2=NCCN2)c2cccc(O)c2)cc1 [Phentolamine]
Time until prior response restored ([1]; antagonist dose 7 x 10^-7 M): 150 min

COc1cc2nc(N3CCN(C(=O)c4ccco4)CC3)nc(N)c2cc1OC [Prazocin]
Time until prior response restored ([1]; antagonist dose 10^-6 M): 160 min
